Test results from ChEMBL document CHEMBL1201862, “PubChem BioAssay data set” (2004).
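Cultured in 96-well plates, cells were exposed to test compound for 48 hours across five concentrations. Here, GI50 denotes the concentration required for 50% inhibition of growth.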 Activity calls are given as the source filed them. Rule as the data show it: active = GI50 up to about 1.1 µM and inactive = higher.

Columns and labels:
Assay in all cases: NCI tumour cell line growth inhibition, 48 h
[1] = system: NCI/ADR-RES
[2] = system: SF-268
[3] = system: MDA-MB-435
[4] = system: OVCAR-8
[5] = system: SK-MEL-2
[6] = system: ACHN
[7] = system: HCT-15
[8] = system: SF-539
[9] = system: PC-3
[10] = system: HOP-62
[11] = system: MOLT-4
[12] = system: COLO 205
[13] = system: BT-549
[14] = system: LOX IMVI
[15] = system: K562
[16] = system: MDA-N
[17] = system: SF-295
[18] = system: TK-10
[19] = system: OVCAR-5
[20] = system: M14
[21] = system: HCC 2998
[22] = system: IGROV-1
[23] = system: T47D
[24] = system: CAKI-1
[25] = system: SW-620
[26] = system: NCI-H226
[27] = system: MCF7
[28] = system: CCRF-CEM
[29] = system: SK-MEL-5
[30] = system: EKVX
[31] = system: NCI-H23
[32] = system: NCI-H460
[33] = system: HOP-92
[34] = system: UACC-62
[35] = system: SN12C
[36] = system: UACC-257
[37] = system: SR
[38] = system: MDA-MB-231
[39] = system: Malme-3M
[40] = system: OVCAR-4
[41] = system: HCT-116
[42] = system: NCI-H522
[43] = system: SNB-19
[44] = system: UO-31
[45] = system: HT-29
[46] = system: HL-60
[47] = system: SK-MEL-28
[48] = system: SNB-75
[49] = system: DU-145
[50] = system: RXF 393
[51] = system: U-251
[52] = system: 786-0
[53] = system: KM12
[54] = system: OVCAR-3
[55] = system: A549
[56] = system: SK-OV-3
[57] = system: A498
[58] = system: RPMI-8226
[59] = system: Hs-578T

In the case of `COc1ccc(C2CC(=O)CC(c3ccc(OC)cc3)C23C(=O)NC(=O)NC3=O)cc1` (stereo not given), the GI50 [1] was 34.4 µM (inactive), the GI50 [2] was 44.1 µM (inactive) and the GI50 [3] was 22.7 µM (inactive). For the same molecule, the GI50 [4] was 32.2 µM (inactive), the GI50 [5] was 18.5 µM (inactive) and the GI50 [6] was 31.3 µM (inactive). For the same molecule, the GI50 [7] was 67.8 µM, the GI50 [8] was > 100 µM (inactive) and the GI50 [9] was 33.9 µM (inactive). For the same molecule, the GI50 [10] was 13.8 µM (inactive), the GI50 [11] was 19 µM (inactive) and the GI50 [12] was 32.1 µM (inactive). For the same molecule, the GI50 [13] was 32.7 µM (inactive), the GI50 [14] was 30.5 µM (inactive) and the GI50 [15] was 37.9 µM (inactive). For the same molecule, the GI50 [16] was 31.8 µM (inactive), the GI50 [17] was 38 µM (inactive) and the GI50 [18] was 89.5 µM (inactive). The GI50 [19] was 56.4 µM (inactive), the GI50 [20] was 52.5 µM (inactive) and the GI50 [21] was 20.3 µM (inactive). For the same molecule, the GI50 [22] was 26.2 µM (inactive), the GI50 [23] was > 10 µM (inactive) and the GI50 [24] was 33.1 µM (inactive). The GI50 [25] was 18.7 µM (inactive), the GI50 [26] was 35.2 µM (inactive) and the GI50 [27] was 25.1 µM (inactive). For the same molecule, the GI50 [28] was 32.7 µM (inactive), the GI50 [29] was 25 µM (inactive) and the GI50 [30] was 32.9 µM (inactive). The GI50 [31] was 23.4 µM (inactive), the GI50 [32] was 35.8 µM (inactive) and the GI50 [33] was 25.1 µM (inactive). For the same molecule, the GI50 [34] was 64.1 µM (inactive), the GI50 [35] was 46.8 µM (inactive) and the GI50 [36] was 38.1 µM (inactive). For the same molecule, the GI50 [37] was 30.4 µM (inactive), the GI50 [38] was 39.1 µM (inactive) and the GI50 [39] was 25.9 µM (inactive). The GI50 [40] was 67 µM (inactive), the GI50 [41] was 27.4 µM (inactive) and the GI50 [42] was 23.3 µM (inactive). The GI50 [43] was 35.3 µM (inactive), the GI50 [44] was 31.6 µM (inactive) and the GI50 [45] was 33.2 µM (inactive). For the same molecule, the GI50 [46] was 27 µM (inactive), the GI50 [47] was 17.2 µM (inactive) and the GI50 [48] was 25.8 µM (inactive). For the same molecule, the GI50 [49] was 48 µM (inactive), the GI50 [50] was 45.9 µM (inactive) and the GI50 [51] was 57.8 µM (inactive). For the same molecule, the GI50 [52] was 30.5 µM (inactive), the GI50 [53] was 25.6 µM (inactive) and the GI50 [54] was 19.3 µM (inactive).
For `COc1cc(/C=C2\C[C@H]3[C@@H]4CCc5cc(OCCN6CCCC6)ccc5[C@H]4CC[C@]3(C)C2=O)cc(OC)c1OC`, the GI50 [1] was 1.91 µM (inactive), the GI50 [3] was 1.61 µM (inactive) and the GI50 [4] was 1.63 µM (inactive). The GI50 [5] was 2.26 µM (inactive), the GI50 [6] was 1.79 µM (inactive) and the GI50 [7] was 1.68 µM. The GI50 [8] was 1.61 µM (inactive), the GI50 [9] was 1.73 µM (inactive) and the GI50 [10] was 1.77 µM (inactive). The GI50 [11] was 1.31 µM (inactive), the GI50 [12] was 1.48 µM (inactive) and the GI50 [13] was 15.5 µM (inactive). For the same molecule, the GI50 [14] was 1.69 µM (inactive), the GI50 [15] was 1.62 µM (inactive) and the GI50 [16] was 1.67 µM (inactive). For the same molecule, the GI50 [17] was 1.79 µM (inactive), the GI50 [18] was 2.53 µM (inactive) and the GI50 [19] was 1.67 µM (inactive). The GI50 [20] was 1.67 µM (inactive), the GI50 [21] was 1.83 µM (inactive) and the GI50 [22] was 1.57 µM (inactive). The GI50 [23] was 1.95 µM (inactive), the GI50 [24] was 1.75 µM (inactive) and the GI50 [25] was 1.91 µM (inactive). The GI50 [26] was 1.97 µM (inactive), the GI50 [27] was 1.65 µM (inactive) and the GI50 [29] was 1.53 µM (inactive). The GI50 [30] was 2.39 µM (inactive), the GI50 [31] was 2.41 µM (inactive) and the GI50 [32] was 1.76 µM (inactive). For the same molecule, the GI50 [55] was 1.69 µM (inactive), the GI50 [34] was 2.52 µM (inactive) and the GI50 [35] was 1.72 µM (inactive). The GI50 [56] was 2.7 µM (inactive), the GI50 [57] was 1.78 µM (inactive) and the GI50 [36] was 2.2 µM (inactive). For the same molecule, the GI50 [37] was 0.314 µM (active), the GI50 [38] was 1.79 µM (inactive) and the GI50 [40] was 1.6 µM (inactive). The GI50 [41] was 1.54 µM (inactive), the GI50 [43] was 2.3 µM (inactive) and the GI50 [44] was 1.54 µM (inactive). For the same molecule, the GI50 [58] was 1.66 µM (inactive), the GI50 [49] was 1.87 µM (inactive) and the GI50 [50] was 1.57 µM (inactive). The GI50 [52] was 1.85 µM (inactive) and the GI50 [53] was 1.69 µM (inactive).
With `Cc1cccc2c1[nH]c1[nH]c(=O)[nH]c(=O)c12` the GI50 [1] was > 100 µM (inactive), the GI50 [2] was > 100 µM (inactive) and the GI50 [3] was > 100 µM (inactive). The GI50 [4] was > 100 µM (inactive), the GI50 [5] was > 100 µM (inactive) and the GI50 [6] was > 100 µM (inactive). For the same molecule, the GI50 [7] was over 100 µM, the GI50 [8] was > 100 µM (inactive) and the GI50 [10] was > 100 µM (inactive). The GI50 [11] was > 100 µM (inactive), the GI50 [12] was > 100 µM (inactive) and the GI50 [13] was > 100 µM (inactive). The GI50 [14] was > 100 µM (inactive), the GI50 [15] was > 100 µM (inactive) and the GI50 [16] was > 100 µM (inactive). For the same molecule, the GI50 [17] was > 100 µM (inactive), the GI50 [18] was > 100 µM (inactive) and the GI50 [19] was > 100 µM (inactive). For the same molecule, the GI50 [20] was > 100 µM (inactive), the GI50 [22] was > 100 µM (inactive) and the GI50 [23] was > 100 µM (inactive). For the same molecule, the GI50 [24] was > 100 µM (inactive), the GI50 [25] was > 100 µM (inactive) and the GI50 [26] was > 100 µM (inactive). For the same molecule, the GI50 [27] was > 100 µM (inactive), the GI50 [28] was > 100 µM (inactive) and the GI50 [29] was > 100 µM (inactive). The GI50 [30] was 83.8 µM (inactive), the GI50 [31] was > 100 µM (inactive) and the GI50 [55] was > 100 µM (inactive). For the same molecule, the GI50 [33] was > 100 µM (inactive), the GI50 [34] was > 100 µM (inactive) and the GI50 [35] was > 100 µM (inactive). For the same molecule, the GI50 [56] was > 100 µM (inactive), the GI50 [57] was > 100 µM (inactive) and the GI50 [36] was > 100 µM (inactive). For the same molecule, the GI50 [37] was > 100 µM (inactive), the GI50 [38] was > 100 µM (inactive) and the GI50 [39] was > 100 µM (inactive). The GI50 [40] was > 100 µM (inactive), the GI50 [41] was > 100 µM (inactive) and the GI50 [42] was > 100 µM (inactive). The GI50 [43] was > 100 µM (inactive), the GI50 [44] was > 100 µM (inactive) and the GI50 [45] was > 100 µM (inactive). For the same molecule, the GI50 [46] was > 100 µM (inactive), the GI50 [58] was > 100 µM (inactive) and the GI50 [48] was 13 µM (inactive). The GI50 [49] was > 100 µM (inactive), the GI50 [50] was > 100 µM (inactive) and the GI50 [52] was > 100 µM (inactive). The GI50 [53] was > 100 µM (inactive), the GI50 [54] was 30.7 µM (inactive) and the GI50 [59] was 53.3 µM (inactive).
